{"source": "patent US3976673A", "about": "“4-Cyclopropylmethyleneoxy-3-chlorophenylacetic acid and salts thereof” (priority 1974, dated 1976)", "key": {"[1]": {"test_system": "hyperpyressia induced by bactopeptone", "assay": "Anti-piretic activity, hyperpyressia induced by bactopeptone", "format": "in vivo, Wistar male rats", "description": "(§1) This was evaluated considering 2 kinds of hyperpyressia. Hyperpyressia induced by:\n1 Milliliter of 5% aqueous solution of bactopeptone preincubated for 18 hours at 37°C were injected subcutaneously in Wistar male rats weighing 170-190 g. 4 Hours after treatment with the pyrogen, the animals were divided into groups of ten animals each and treated orally with the substances under examination. The rectal temperature was taken at the beginning of the test, 4 hours after the injection of the pyrogen agent and subsequently 1, 2 and 3 hours after the administration of the substances under test. The difference between the temperature taken in the treated animals and in controls is an index of the anti-pyretic activity."}, "[2]": {"assay": "Toxicity / therapeutical index (general statement)", "details": "statement in words"}, "[3]": {"test_system": "pain threshold of rat's paw made edematous by yeast", "assay": "Analgesic activity, Randall and Selitto (pain threshold of edematous rat paw)", "format": "in vivo, male Wistar rats", "details": "vs basal values", "description": "It was evaluated according to the following methods: a. Randall and Selitto The pressure to be exerted on a rat's paw previously made edematous by injecting into the plantar zone 0.1 ml of 20% suspension of yeast until appearance of painful reaction was measured in mmHg. The pain threshold was determined 30 minutes before and 30, 60, 90 and 120 minutes after the administration of the substances under test. 10 Male Wistar rats weighing 170-190 g were used for each dosage level and the corresponding average values considered for each dose. The percentage increase of the pain threshold compared to the basal values is taken as the index of the analgesic activity."}, "[4]": {"assay": "Chemical stability (general statement)", "format": "physicochemical", "details": "statement in words"}, "[5]": {"test_system": "abdominal stretching induced by phenylbenzoquinone", "assay": "Analgesic activity, Siegmund (phenylbenzoquinone abdominal stretching)", "format": "in vivo, Swiss male mice", "details": "salts' dosage expressed as acid, vs water controls", "description": "It was evaluated according to the following methods:\nThe antagonism towards the abdominal stretching induced by phenylbenzoquinone was evaluated. Swiss male mice weighing 19-21 g were treated orally with the compounds under examination 30 minutes before the endoperitoneal administration of 0.25 ml of a […] aqueous phenylbenzoquinone solution. The animals were kept under observation for 30 minutes after treatment with phenylbenzoquinone and the abdominal stretchings for each animal were counted. 10 Mice for each dosage level were used and the corresponding average values considered. The percentage decrease of the number of abdominal stretchings in the animals treated with the substances under test compared with the controls treated with water was taken as the index of the analgesic activity."}, "[6]": {"test_system": "hyperpyressia induced by yeast", "assay": "Anti-piretic activity, hyperpyressia induced by yeast", "format": "in vivo, albino rabbits", "description": "as §1\nTo albino rabbits, 1 ml/kg of a 0.2% aqueous suspension of yeast were injected intravenously. The rectal temperature was teken at the beginning of the experiment and 60 minutes after the treatment with the pyrogen agent. Immediately after taking the temperature the compounds under test were administered orally to the animals and the rectal temperatures thereof were subsequently measured after 30, 60, 120 and 180 minutes. 10 Animals were treated for each dose level. The difference between the temperatures taken in the animals treated and in the controls is and index of the antipyretic activity. The results obtained by performing the two methods cited above for the determination of the antipyretic activity are listed in Tables 4 and 5 respectively and evaluated as average value for each dose."}, "[7]": {"test_system": "edema induced by carrageenin", "assay": "Anti-inflammatory activity, Winter's method (carrageenin edema)", "format": "in vivo, male rats", "details": "3 hours after carrageenin", "description": "This was determined according to Winter's method which evaluates the inhibiting effect on the edema induced by carrageenin.\nMale rats weighing 170-190 g were treated with the compounds under test and after 60 minutes 0.005 ml of a 1% aqueous solution of carrageenin were injected into the plantar zone of a hind paw of each animal. The volume of the treated paw was determined immediately after the injection and 3 hours later.\n10 Animals were used for each dosage level. The increase difference in the volume of the paw of animals treated compared with the controls represents the index of the anti-inflammatory activity. The results obtained, expressed as percentage inhibition of the volume of the edema compared to the controls and evaluated as average value for each dose are listed in Table 3."}, "[8]": {"details": "15 mg/kg os, salts' dosage expressed as acid"}, "[9]": {"details": "25 mg/kg os, salts' dosage expressed as acid"}, "[10]": {"details": "25 mg/kg i.p., salts' dosage expressed as acid"}, "[11]": {"details": "50 mg/kg i.p., salts' dosage expressed as acid"}, "[12]": {"details": "50 mg/kg os, salts' dosage expressed as acid"}}, "note": "Entries after “also recorded” stand apart in the source; their conditions may differ.", "data": [{"smiles": "O=C(O)Cc1ccc(OCC2CC2)c(Cl)c1", "note": "[4-cyclopropylmethyleneoxy-3-chlorophenylacetic acid]", "values": [{"measurement": "Rectal temperature, 1 hour after treatment", "setting": "[1]; 6 mg/kg os", "result": 38.7, "unit": "°C"}, {"measurement": "Rectal temperature, 2 hours after treatment", "setting": "[1]; 6 mg/kg os", "result": 39.3, "unit": "°C"}, {"measurement": "Rectal temperature, 3 hours after treatment", "setting": "[1]; 6 mg/kg os", "result": 39.1, "unit": "°C"}, {"measurement": "Rectal temperature, 1 hour after treatment", "setting": "[1]; [8]", "result": 37.7, "unit": "°C"}, {"measurement": "Rectal temperature, 2 hours after treatment", "setting": "[1]; [8]", "result": 38.0, "unit": "°C"}, {"measurement": "Rectal temperature, 3 hours after treatment", "setting": "[1]; [8]", "result": 37.6, "unit": "°C"}, {"measurement": "Rectal temperature, 1 hour after treatment", "setting": "[1]; [9]", "result": 37.3, "unit": "°C"}, {"measurement": "Rectal temperature, 2 hours after treatment", "setting": "[1]; [9]", "result": 37.3, "unit": "°C"}, {"measurement": "Rectal temperature, 3 hours after treatment", "setting": "[1]; [9]", "result": 37.1, "unit": "°C"}, {"measurement": "toxicity", "setting": "[2]", "result": "low toxicity"}, {"measurement": "% Increase of pain threshold", "setting": "[3]; [10]", "result": 27, "unit": "%"}, {"measurement": "% Increase of pain threshold", "setting": "[3]; [9]", "result": 44, "unit": "%"}, {"measurement": "% Increase of pain threshold", "setting": "[3]; [11]", "result": 105, "unit": "%"}, {"measurement": "% Increase of pain threshold", "setting": "[3]; [12]", "result": 120, "unit": "%"}, {"measurement": "% Increase of pain threshold", "setting": "[3]; 100 mg/kg i.p.", "result": 176, "unit": "%"}, {"measurement": "% Increase of pain threshold", "setting": "[3]; 100 mg/kg os", "result": 180, "unit": "%"}, {"measurement": "stability of chemical structure", "setting": "[4]", "result": "noticeable stability; also recorded: chemically stable"}, {"measurement": "% Decrease in number of stretchings", "setting": "[5]; 25 mg/kg os", "result": 51, "unit": "%"}, {"measurement": "% Decrease in number of stretchings", "setting": "[5]; 50 mg/kg os", "result": 77, "unit": "%"}, {"measurement": "% Decrease in number of stretchings", "setting": "[5]; 100 mg/kg os", "result": 98, "unit": "%"}, {"measurement": "Rectal temperature, 30 mins. after treatment", "setting": "[6]; 5 mg/kg per os", "result": 40.17, "unit": "°C"}, {"measurement": "Rectal temperature, 60 mins. after treatment", "setting": "[6]; 5 mg/kg per os", "result": 40.15, "unit": "°C"}, {"measurement": "Rectal temperature, 120 mins. after treatment", "setting": "[6]; 5 mg/kg per os", "result": 40.55, "unit": "°C"}, {"measurement": "Rectal temperature, 180 mins. after treatment", "setting": "[6]; 5 mg/kg per os", "result": 40.02, "unit": "°C"}, {"measurement": "Rectal temperature, 30 mins. after treatment", "setting": "[6]; 10 mg/kg per os", "result": 40.05, "unit": "°C"}, {"measurement": "Rectal temperature, 60 mins. after treatment", "setting": "[6]; 10 mg/kg per os", "result": 39.90, "unit": "°C"}, {"measurement": "Rectal temperature, 120 mins. after treatment", "setting": "[6]; 10 mg/kg per os", "result": 39.48, "unit": "°C"}, {"measurement": "Rectal temperature, 180 mins. after treatment", "setting": "[6]; 10 mg/kg per os", "result": 39.32, "unit": "°C"}, {"measurement": "Rectal temperature, 30 mins. after treatment", "setting": "[6]; 25 mg/kg per os", "result": 40.65, "unit": "°C"}, {"measurement": "Rectal temperature, 60 mins. after treatment", "setting": "[6]; 25 mg/kg per os", "result": 39.95, "unit": "°C"}, {"measurement": "Rectal temperature, 120 mins. after treatment", "setting": "[6]; 25 mg/kg per os", "result": 39.20, "unit": "°C"}, {"measurement": "Rectal temperature, 180 mins. after treatment", "setting": "[6]; 25 mg/kg per os", "result": 39.05, "unit": "°C"}, {"measurement": "% Inhibition of oedema", "setting": "[7]; 2.5 mg/kg i.p.", "result": 15, "unit": "%"}, {"measurement": "% Inhibition of oedema", "setting": "[7]; 5 mg/kg i.p., salts' dosage expressed as acid", "result": 37, "unit": "%"}, {"measurement": "% Inhibition of oedema", "setting": "[7]; 10 mg/kg os, salts' dosage expressed as acid", "result": 31, "unit": "%"}, {"measurement": "% Inhibition of oedema", "setting": "[7]; [10]", "result": 55, "unit": "%"}, {"measurement": "% Inhibition of oedema", "setting": "[7]; [11]", "result": 61, "unit": "%"}, {"measurement": "% Inhibition of oedema", "setting": "[7]; [12]", "result": 65, "unit": "%"}]}]}
